{"source": "paper PMC6759624", "about": "“Unraveling Heparan Sulfate Proteoglycan Binding Motif for Cancer Cell Selectivity” (Frontiers in Oncology, 2019)", "test_system": "HT-29, PANC-1, MCF-7, and MDA-MB-231 cells", "experiment": "NT4 cell binding versus sulfatase expression in cell panel", "format": "cell-based, human", "settings": "SULF-1 and SULF-2 expression (RT-PCR; SULF-1 also Western blot) versus flow cytometry binding", "method": "PANC-1 human pancreas adenocarcinoma, HT-29 human colon adenocarcinoma, and MCF-7 and MDA-MB-231 human breast adenocarcinoma cells were grown in the recommended American Type Culture Collection (ATCC) media, supplemented with 10% fetal calf serum, 200 μg/ml glutamine, 100 μg/ml streptomycin, 60 μg/ml penicillin, and maintained at 37°C, 5% CO2. Cell lines were purchased from ATCC, and cell profiling was analyzed to authenticate human cell lines (BMR Genomics). All experiments were performed using 2 × 10^5 cells in 96-well U-bottom plates. All dilutions were performed in phosphate-buffered saline (PBS), containing 5 mM EDTA and 1% bovine serum albumin (BSA). […] P values were calculated using a two-tailed Student t-test and GraphPad Prism 5.0 software. […] RNA was quantified by spectrophotometry at 260 and 280 nm and verified by agarose gel electrophoresis. The same quantity of RNA for every cell line was loaded on the gel. […] Signals were detected using Image LAS4010 (GE Healthcare). […] P values were calculated using a one-tailed Student t-test and GraphPad Prism 5.0 software. […] Signals were detected using Image LAS4010 (GE Healthcare). […] P values were calculated using a parametric, unpaired Student t-test, and GraphPad Prism 5.0 software.", "note": "Entries after “also recorded” stand apart in the source; their conditions may differ.", "data": [{"substance": "(pyELYENKPRRPYIL)4K2K-beta-Ala [NT4]", "values": [{"measurement": "correlation of NT4 binding with sulfatase expression", "result": "inversely correlated with sulfatase expression; also recorded: inversely correlated with expression of sulfatases"}]}]}
